Reference: ChEMBL document CHEMBL3745595, “Flavoalkaloids and Flavonoids from Astragalus monspessulanus” (J Nat Prod, 2015)

Assays:
[1] = Antioxidant activity assessed as reactive oxygen species scavenging activity; format: physicochemical
Hepatocyte = experiment: Hepatoprotective activity against tert-butyl hydroperoxide-induced oxidative stress in Wistar rat hepatocytes assessed as cell viability at 60 ug/ml by tryphan blue exclusion method (reference value: 74%); format: functional; settings: for viability at 60 µg/mL: read-out: Activity

| Activity [1] | Compound | viability at 60 µg/mL (Hepatocyte) | Activity (Hepatocyte) |
| --- | --- | --- | --- |
| Active | C[C@@H]1O[C@@H](O[C@H]2[C@H](Oc3c(-c4ccc(O)cc4)oc4cc(O)cc(O)c4c3=O)O[C@H](COC(=O)CC(C)(O)CC(=O)O)[C@H](O)[C@@H]2O)[C@H](O)[C@H](O)[C@H]1O (stereo partly specified) | 155% | – |
| Active | C[C@@H]1O[C@@H](OC[C@H]2O[C@@H](Oc3c(-c4ccc(O)cc4)oc4cc(O[C@@H]5O[C@H](CO)[C@@H](O)[C@H](O)[C@H]5O)cc(O)c4c3=O)[C@H](O[C@@H]3O[C@@H](C)[C@H](O)[C@@H](O)[C@H]3O)[C@@H](O)[C@H]2O)[C@H](O)[C@H](O)[C@H]1O | 164% | – |
| Active | C[C@@H]1O[C@@H](O[C@H]2[C@H](Oc3c(-c4ccc(O)c(O)c4)oc4cc(O)cc(O)c4c3=O)O[C@H](COC(=O)CC(C)(O)CC(=O)O)[C@H](O)[C@@H]2O)[C@H](O)[C@H](O)[C@H]1O (stereo partly specified) | 182% | – |
| Active | C[C@@H]1O[C@@H](OC[C@H]2O[C@@H](Oc3c(-c4ccc(O)c(O)c4)oc4c(CN5CCCC(O)C5=O)c(O)cc(O)c4c3=O)[C@H](O[C@@H]3O[C@@H](C)[C@H](O)[C@@H](O)[C@H]3O)[C@@H](O)[C@H]2O)[C@H](O)[C@H](O)[C@H]1O (stereo partly specified) | 159% | – |
| Active | C[C@@H]1O[C@@H](OC[C@H]2O[C@@H](Oc3c(-c4ccc(O)c(O)c4)oc4cc(O)cc(O)c4c3=O)[C@H](O[C@@H]3O[C@@H](C)[C@H](O)[C@@H](O)[C@H]3O)[C@@H](O)[C@H]2O)[C@H](O)[C@H](O)[C@H]1O | 195% | – |

Second part, the compound before the results:

| Compound | Activity [1] | viability at 60 µg/mL (Hepatocyte) | Activity (Hepatocyte) |
| --- | --- | --- | --- |
| C[C@@H]1O[C@@H](OC[C@H]2O[C@@H](Oc3c(-c4ccc(O)c(O)c4)oc4cc(O)cc(O)c4c3=O)[C@H](O)[C@@H](O)[C@H]2O)[C@H](O)[C@H](O)[C@H]1O | Active | 159% | – |
| SILYMARIN [listing 1 of 2 here] | Active | – | – |
| C[C@@H]1O[C@@H](OC[C@H]2O[C@@H](Oc3c(-c4ccc(O)cc4)oc4cc(O)cc(O)c4c3=O)[C@H](O[C@@H]3O[C@@H](C)[C@H](O)[C@@H](O)[C@H]3O)[C@@H](O)[C@H]2O)[C@H](O)[C@H](O)[C@H]1O | Active | 168% | – |
| C[C@@H]1O[C@@H](OC[C@H]2O[C@@H](Oc3c(-c4ccc(O)cc4)oc4c(CN5CCCC(O)C5=O)c(O)cc(O)c4c3=O)[C@H](O[C@@H]3O[C@@H](C)[C@H](O)[C@@H](O)[C@H]3O)[C@@H](O)[C@H]2O)[C@H](O)[C@H](O)[C@H]1O (stereo partly specified) | Active | 177% | – |
| O=c1cc(-c2ccc(O)cc2)oc2cc(O[C@@H]3O[C@H](CO)[C@@H](O)[C@H](O)[C@H]3O)cc(O)c12 [APIGETRIN] | Active | 177% | – |
| C[C@@H]1O[C@@H](OC[C@H]2O[C@@H](Oc3c(-c4ccc(O)c(O)c4)oc4cc(O[C@@H]5O[C@H](CO)[C@@H](O)[C@H](O)[C@H]5O)cc(O)c4c3=O)[C@H](O[C@@H]3O[C@@H](C)[C@H](O)[C@@H](O)[C@H]3O)[C@@H](O)[C@H]2O)[C@H](O)[C@H](O)[C@H]1O | Active | 186% | – |
| SILYMARIN [listing 2 of 2 here] | – | – | 182% |
| O=c1c(O[C@@H]2O[C@H](CO)[C@H](O)[C@H](O)[C@H]2O)c(-c2ccc(O)cc2)oc2cc(O)cc(O)c12 [TRIFOLIN] | Active | 191% | – |
| C[C@@H]1O[C@@H](OC[C@H]2O[C@@H](Oc3c(-c4ccc(O)c(O)c4)oc4cc(O)cc(O)c4c3=O)[C@H](O)[C@@H](O)[C@@H]2O)[C@H](O)[C@H](O)[C@H]1O [RUTIN] | Active | 168% | – |
